Measurements published in ChEMBL document CHEMBL1201862, “PubChem BioAssay data set” (2004).
Activity calls are given as the source filed them.

Key:
[1] = target: Dual specificity protein phosphatase 3 (Homo sapiens, UniProt P51452); assay: inhibition constants for human DUSP3 – biochemical, colorimetric, SAR follow-up (AID 2004)
[2] = target: Melanin-concentrating hormone receptor 1 (Homo sapiens, UniProt Q99705); assay: Fluorescence-based counterscreen for antagonists of the G-protein coupled receptor 7 (GPR7): cell-based high throughput dose response assay to identify antagonists of the melanin-concentrating hormone receptor 1 (MCHR1).; type: functional
Streptokinase A = target: T1, Streptokinase A (Streptococcus pyogenes serotype M1, UniProt P10520); assay: viability-normalized secreted streptokinase activity reduction – plasminogen activation absorbance, OD405, dose response (AID 1914); type: functional, Streptococcus pyogenes M1 GAS;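 also: secreted streptokinase activity via plasminogen activation per viability signal from cell pellet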
T1 sequence (P10520 whole entry): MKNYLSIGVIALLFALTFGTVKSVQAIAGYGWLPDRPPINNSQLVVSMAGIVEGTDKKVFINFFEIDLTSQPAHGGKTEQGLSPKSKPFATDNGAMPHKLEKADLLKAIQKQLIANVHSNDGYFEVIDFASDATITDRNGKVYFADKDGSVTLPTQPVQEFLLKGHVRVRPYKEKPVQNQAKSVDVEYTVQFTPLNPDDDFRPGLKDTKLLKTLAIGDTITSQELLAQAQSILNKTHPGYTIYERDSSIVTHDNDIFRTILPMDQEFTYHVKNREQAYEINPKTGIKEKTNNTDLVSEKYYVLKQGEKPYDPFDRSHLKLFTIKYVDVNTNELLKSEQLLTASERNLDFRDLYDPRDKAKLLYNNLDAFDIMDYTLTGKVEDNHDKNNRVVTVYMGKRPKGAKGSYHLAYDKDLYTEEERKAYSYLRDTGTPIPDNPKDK

[3] = system: Streptococcus sp. 'group A'; assay: Streptococcus pyogenes SK(-)GAS viability under kanamycin – luminescence, BacTiterGlo, confirmation, counter-screen for streptokinase expression inhibitor project, dose response (AID 1900); type: functional, organism-based
Streptococcus [4] = assay: Luminescence Microorganism-Based Dose Response Follow up to Identify Compounds Cytotoxic to Streptococcus. [Related pubchem assays: 1677 (Project Summary), 1915, 1914, 1902 (Retest at Dose), 1900 (Counter Screen), 1662 (Primary HTS)]; type: functional, organism-based
Streptococcus [5] = assay: GAS UMAA2166 growth inhibition – luminescence, BacTiterGlo, counter-screen for streptokinase expression inhibitor project, dose response (AID 1915); type: functional, organism-based;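 also: potency for reduction of bacterial viability or growth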
[6] = target: Disintegrin and metalloproteinase domain-containing protein 17 (Homo sapiens, UniProt P78536); assay: inhibition of ADAM17 substrate cleavage – biochemical, quenched FRET substrate, counter-screen for ADAM10 exosite inhibitor project, dose response (AID 743253)
Chain of Disintegrin and metalloproteinase domain-containing protein 17 (P78536 whole entry, the tested form may be a part): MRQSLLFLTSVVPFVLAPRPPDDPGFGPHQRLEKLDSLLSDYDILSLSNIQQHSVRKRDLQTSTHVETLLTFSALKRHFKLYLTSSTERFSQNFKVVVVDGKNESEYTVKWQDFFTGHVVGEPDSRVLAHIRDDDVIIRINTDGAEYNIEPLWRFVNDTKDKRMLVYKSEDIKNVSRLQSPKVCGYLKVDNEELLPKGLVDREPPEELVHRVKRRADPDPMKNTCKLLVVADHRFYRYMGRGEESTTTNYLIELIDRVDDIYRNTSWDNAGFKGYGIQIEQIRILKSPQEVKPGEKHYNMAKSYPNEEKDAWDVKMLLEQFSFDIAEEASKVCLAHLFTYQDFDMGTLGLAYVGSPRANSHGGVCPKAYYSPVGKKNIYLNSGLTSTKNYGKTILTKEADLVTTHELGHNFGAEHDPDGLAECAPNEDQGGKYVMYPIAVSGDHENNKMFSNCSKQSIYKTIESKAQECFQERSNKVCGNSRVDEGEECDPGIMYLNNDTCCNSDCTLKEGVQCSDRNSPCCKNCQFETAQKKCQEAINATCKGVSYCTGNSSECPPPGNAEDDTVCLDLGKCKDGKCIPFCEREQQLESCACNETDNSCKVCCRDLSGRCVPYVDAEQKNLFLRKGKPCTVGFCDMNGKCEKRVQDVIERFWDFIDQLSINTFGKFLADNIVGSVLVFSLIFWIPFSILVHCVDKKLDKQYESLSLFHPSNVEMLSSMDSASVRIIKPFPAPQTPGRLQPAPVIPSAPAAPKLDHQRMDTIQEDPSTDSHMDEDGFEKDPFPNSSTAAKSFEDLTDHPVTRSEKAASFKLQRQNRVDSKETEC

Leucine aminopeptidase = target: T2, Leucine aminopeptidase (Plasmodium falciparum 3D7, UniProt Q8IL11); assay: P. falciparum M17LAP inhibitors, primary screen, biochemical, fluorogenic H-Leu-NHMec substrate, 1536-well (AID 1619); type: functional
T2 sequence (Q8IL11 whole entry): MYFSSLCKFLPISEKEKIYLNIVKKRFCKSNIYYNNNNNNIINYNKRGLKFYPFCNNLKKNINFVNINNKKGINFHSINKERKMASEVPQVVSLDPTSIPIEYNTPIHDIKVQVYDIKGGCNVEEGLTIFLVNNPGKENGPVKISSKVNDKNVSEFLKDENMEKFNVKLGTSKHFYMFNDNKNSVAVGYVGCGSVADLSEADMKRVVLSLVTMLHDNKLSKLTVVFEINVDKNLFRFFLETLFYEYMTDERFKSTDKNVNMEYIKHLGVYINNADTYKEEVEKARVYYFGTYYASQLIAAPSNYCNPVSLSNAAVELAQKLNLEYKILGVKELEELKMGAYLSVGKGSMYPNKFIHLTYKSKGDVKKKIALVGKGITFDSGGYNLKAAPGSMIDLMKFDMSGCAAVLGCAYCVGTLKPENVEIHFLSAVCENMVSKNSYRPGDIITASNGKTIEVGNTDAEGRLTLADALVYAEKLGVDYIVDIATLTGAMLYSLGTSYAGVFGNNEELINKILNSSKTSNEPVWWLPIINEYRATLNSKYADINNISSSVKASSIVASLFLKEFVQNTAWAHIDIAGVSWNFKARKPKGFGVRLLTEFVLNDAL

[7] = target: Lysosomal acid glucosylceramidase (Homo sapiens, UniProt P04062); assay: Dose response cell-based high throughput screening assay to identify enhancers of beta-glucosidase activity. [Related pubchem assays: 784 ]; type: functional
[8] = Luminescence Cell-Based Dose Retest to Confirm Inhibitors of Cancer Stem Cells. [Related pubchem assays (depositor defined):AID2717, AID2721]; type: functional; settings: Homo sapiens
[9] = target: Neurotensin receptor type 1 (Homo sapiens, UniProt P30989); type: functional;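 also: Image-based confirmatory dose-response assay measuring agonist activity at NTR1; NTR1-expressing U2OS osteosarcoma cells imaged for beta-arrestin GFP spot formation; agonist potency where compounds increase beta-arrestin recruitment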
Chain of Neurotensin receptor type 1 (P30989 whole entry): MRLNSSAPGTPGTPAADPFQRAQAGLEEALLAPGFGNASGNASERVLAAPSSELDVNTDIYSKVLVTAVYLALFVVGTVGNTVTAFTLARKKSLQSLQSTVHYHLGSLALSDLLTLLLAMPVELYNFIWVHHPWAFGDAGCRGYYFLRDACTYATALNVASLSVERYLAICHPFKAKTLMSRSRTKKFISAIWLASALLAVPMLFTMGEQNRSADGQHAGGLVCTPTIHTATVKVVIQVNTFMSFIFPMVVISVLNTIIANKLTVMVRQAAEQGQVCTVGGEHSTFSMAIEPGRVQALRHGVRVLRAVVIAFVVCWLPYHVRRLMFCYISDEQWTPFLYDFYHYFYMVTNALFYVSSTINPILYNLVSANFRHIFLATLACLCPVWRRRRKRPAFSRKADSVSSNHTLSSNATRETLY

Fatty acid synthase [10] = target: T3, Fatty acid synthase (Homo sapiens, UniProt P49327); assay: inhibition of human FAS-TE enzyme activity – biochemical, kinetic fluorescence intensity, dose response (AID 624326); type: functional;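 also: rate of fluorescence rise from hydrolysis of a fluorogenic O-methyl fluorescein ester substrate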
T3 sequence (P49327 whole entry): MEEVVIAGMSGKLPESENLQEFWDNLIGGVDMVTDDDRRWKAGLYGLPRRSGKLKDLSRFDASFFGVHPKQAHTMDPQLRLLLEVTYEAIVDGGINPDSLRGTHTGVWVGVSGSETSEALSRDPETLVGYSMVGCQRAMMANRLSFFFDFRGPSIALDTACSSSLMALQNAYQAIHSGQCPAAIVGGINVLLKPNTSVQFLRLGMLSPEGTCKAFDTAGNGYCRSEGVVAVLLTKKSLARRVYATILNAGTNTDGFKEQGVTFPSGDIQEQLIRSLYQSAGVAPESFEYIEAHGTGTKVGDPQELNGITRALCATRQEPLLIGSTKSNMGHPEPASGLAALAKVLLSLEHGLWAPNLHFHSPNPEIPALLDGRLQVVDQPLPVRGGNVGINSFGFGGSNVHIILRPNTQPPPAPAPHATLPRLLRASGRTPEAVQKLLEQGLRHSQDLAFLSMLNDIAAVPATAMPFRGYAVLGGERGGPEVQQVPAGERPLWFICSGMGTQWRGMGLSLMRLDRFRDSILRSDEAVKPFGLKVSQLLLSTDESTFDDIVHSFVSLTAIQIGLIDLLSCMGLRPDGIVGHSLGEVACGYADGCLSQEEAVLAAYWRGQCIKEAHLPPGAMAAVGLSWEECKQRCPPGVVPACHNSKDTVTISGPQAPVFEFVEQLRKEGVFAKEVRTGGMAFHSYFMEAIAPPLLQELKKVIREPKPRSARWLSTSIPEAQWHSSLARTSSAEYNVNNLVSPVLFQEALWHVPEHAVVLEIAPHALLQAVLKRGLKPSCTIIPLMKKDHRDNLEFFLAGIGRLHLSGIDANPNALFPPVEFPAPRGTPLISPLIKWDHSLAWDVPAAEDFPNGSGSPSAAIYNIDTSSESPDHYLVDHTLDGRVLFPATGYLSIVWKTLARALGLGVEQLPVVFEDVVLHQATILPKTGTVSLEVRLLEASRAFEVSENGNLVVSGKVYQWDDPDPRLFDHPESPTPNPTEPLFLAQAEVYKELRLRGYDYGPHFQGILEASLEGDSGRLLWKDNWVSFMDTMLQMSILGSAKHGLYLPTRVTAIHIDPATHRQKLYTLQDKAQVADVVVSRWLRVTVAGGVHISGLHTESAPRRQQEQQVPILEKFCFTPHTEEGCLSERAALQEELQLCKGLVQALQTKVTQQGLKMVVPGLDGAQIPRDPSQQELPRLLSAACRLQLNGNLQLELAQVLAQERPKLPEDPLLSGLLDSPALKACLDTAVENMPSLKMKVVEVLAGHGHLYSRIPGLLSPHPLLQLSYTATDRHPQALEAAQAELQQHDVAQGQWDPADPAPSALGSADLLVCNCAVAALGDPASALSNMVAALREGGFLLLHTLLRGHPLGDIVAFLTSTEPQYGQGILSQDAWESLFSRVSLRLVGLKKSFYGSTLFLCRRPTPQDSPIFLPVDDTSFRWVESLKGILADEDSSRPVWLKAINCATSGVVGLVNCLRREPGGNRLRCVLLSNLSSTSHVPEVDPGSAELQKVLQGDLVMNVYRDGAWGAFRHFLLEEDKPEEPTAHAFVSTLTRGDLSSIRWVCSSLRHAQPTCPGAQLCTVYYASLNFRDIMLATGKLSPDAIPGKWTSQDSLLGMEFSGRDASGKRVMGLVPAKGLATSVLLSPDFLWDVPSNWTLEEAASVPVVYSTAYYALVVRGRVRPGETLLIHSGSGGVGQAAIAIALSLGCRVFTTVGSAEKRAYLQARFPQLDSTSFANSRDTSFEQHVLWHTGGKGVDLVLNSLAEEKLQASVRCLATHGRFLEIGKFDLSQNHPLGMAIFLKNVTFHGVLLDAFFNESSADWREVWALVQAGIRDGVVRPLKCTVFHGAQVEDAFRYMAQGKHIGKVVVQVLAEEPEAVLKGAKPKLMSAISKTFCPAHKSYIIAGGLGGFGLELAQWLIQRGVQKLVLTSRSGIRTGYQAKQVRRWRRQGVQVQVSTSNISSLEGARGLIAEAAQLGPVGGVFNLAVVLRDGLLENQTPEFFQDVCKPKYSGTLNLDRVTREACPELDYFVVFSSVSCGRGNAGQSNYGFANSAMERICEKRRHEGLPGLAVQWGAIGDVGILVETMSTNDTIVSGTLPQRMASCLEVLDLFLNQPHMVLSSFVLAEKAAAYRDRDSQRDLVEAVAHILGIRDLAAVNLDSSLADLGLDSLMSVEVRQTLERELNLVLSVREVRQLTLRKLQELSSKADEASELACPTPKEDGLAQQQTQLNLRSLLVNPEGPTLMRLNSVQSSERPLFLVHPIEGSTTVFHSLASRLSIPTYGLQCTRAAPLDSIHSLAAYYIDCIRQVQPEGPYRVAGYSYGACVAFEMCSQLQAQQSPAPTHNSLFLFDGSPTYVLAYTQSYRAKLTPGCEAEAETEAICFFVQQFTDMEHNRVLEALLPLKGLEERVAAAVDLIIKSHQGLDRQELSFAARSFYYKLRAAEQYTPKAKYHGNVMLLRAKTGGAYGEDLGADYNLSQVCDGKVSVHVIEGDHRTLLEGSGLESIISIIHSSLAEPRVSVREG

[11] = NIH-3T3 fibroblast cytotoxicity, dose response, cytotoxicity control, cell-based, fluorescence, Alamar Blue, secondary assay (AID 2327); type: functional;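 also: NIH-3T3 mouse fibroblasts cultured with fluconazole at 8 µg/mL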
[12] = fluconazole-exposed Candida albicans growth modulators – fluorescence, retest, confirmation (AID 2467); type: functional, cell-based
[13] = antiviral protection against BTV-induced cell death – arbovirus, BSR cells, confirmation (AID 1250); type: functional;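 also: protection from viral cytopathic effect measured as cell viability by ATP luminescence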
[14] = CCR5-tropic HIV-1 fusion blockers – cell-based, CCR5-tropic Env, dose response (AID 2279); type: functional
Fatty acid synthase [15] = target: T3, Fatty acid synthase; assay: inhibition of human FAS-TE enzyme activity – biochemical, endpoint fluorescence intensity, uHTS hits, dose response (AID 624327); type: functional;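 also: fluorescence from hydrolysis of an O-methyl fluorescein acyl ester substrate by the enzyme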
Aminopeptidase N = Aminopeptidase N (Plasmodium falciparum FcB1/Columbia, UniProt O96935); assay: malaria alanyl aminopeptidase activity blockers – biochemical, fluorogenic H-Leu-NHMec substrate, 1536-well (AID 1445); parameters: species or system Plasmodium falciparum 3D7, 3D7
Chain of Aminopeptidase N (O96935 whole entry): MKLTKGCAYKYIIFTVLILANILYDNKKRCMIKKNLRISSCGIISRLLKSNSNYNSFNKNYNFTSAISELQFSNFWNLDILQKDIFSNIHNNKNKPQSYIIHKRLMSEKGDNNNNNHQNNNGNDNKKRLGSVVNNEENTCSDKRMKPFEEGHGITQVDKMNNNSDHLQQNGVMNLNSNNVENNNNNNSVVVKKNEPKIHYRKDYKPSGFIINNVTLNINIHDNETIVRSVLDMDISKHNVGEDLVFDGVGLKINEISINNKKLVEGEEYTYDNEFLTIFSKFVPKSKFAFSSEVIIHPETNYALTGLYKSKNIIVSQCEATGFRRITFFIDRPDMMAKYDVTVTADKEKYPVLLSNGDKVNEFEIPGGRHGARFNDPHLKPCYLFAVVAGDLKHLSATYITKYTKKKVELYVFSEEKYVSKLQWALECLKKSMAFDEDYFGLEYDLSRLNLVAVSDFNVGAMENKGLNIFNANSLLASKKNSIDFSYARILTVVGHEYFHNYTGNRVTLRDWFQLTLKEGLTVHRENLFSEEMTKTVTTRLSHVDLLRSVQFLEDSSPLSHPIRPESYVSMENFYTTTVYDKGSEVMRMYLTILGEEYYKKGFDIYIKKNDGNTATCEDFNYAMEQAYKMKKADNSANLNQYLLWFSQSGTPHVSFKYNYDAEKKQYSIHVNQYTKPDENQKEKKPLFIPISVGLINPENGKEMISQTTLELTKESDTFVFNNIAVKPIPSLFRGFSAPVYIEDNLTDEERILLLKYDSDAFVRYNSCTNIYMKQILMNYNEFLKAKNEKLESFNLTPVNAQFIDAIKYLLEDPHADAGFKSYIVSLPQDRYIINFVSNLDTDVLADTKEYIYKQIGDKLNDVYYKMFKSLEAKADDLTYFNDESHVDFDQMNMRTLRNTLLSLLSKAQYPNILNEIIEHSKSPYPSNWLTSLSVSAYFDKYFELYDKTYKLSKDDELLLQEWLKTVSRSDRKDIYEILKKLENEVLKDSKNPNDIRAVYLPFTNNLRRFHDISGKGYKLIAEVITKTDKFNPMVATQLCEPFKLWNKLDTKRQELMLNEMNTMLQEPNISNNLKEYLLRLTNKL
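For AC50 in this document: cells exposed to compound for roughly 70 hours or longer before luminescence read.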

Chain of Dual specificity protein phosphatase 3 (P51452 whole entry): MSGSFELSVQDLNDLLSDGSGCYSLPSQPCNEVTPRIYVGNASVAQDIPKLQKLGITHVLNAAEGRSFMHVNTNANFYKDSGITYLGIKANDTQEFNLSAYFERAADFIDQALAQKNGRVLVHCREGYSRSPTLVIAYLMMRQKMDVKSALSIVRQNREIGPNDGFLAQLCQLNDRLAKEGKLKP

## Cc1ccc(-c2ccccc2)n1-c1ccc(O)c(C(=O)O)c1
[1]
  Ki: 80.3 µM (inactive)

## N=C(N)NS(=O)(=O)c1ccc(NC(=S)NC(=O)Cc2ccc(Cl)cc2)cc1
[2]
  IC50: 21.8 µM (not active)

## Cc1cccc(C)c1OCC(O)Cn1c2ccccc2c2ccccc21 (stereo not drawn)
Streptokinase A
  EC50: 3.98 µM (active)
[3]
  EC50: 6.75 µM (active)
Streptococcus [4]
  EC50: 9.21 µM (active)
Streptococcus [5]
  EC50: 7.9 µM (active)
[6]
  IC50: > 69.5 µM (inactive)

## O=C(CN1C(=O)c2ccccc2S1(=O)=O)NCCSC1CCCCC1
Leucine aminopeptidase
  IC50: 9.32 µM (active)
[7]
  EC50: > 10 µM (not active)

## CC(C)CN1C(=O)/C(=C/c2c[nH]nc2-c2ccccc2)SC1=S
[8]
  AC50: 2.59 µM (active)
[9]
  EC50: 15 µM (active)

## COc1cc(/C=C(\C#N)c2nc3ccccc3s2)cc([N+](=O)[O-])c1O
Fatty acid synthase [10]
  IC50: 10 µM (active)
[11]
  EC50: > 150 µM (inactive)
[12]
  EC50: > 38 µM (not active)
[13]
  IC50: 33.7 µM (active)
[14]
  IC50: > 50 µM (active)
Fatty acid synthase [15]
  IC50: 12.4 µM (active)
Aminopeptidase N
  IC50: 11 µM (active)
